In PubChem BioAssay AID248 (DTP/NCI, 2004):
Where “and” joins values, the source holds several entries; their conditions need not be identical. Equal values may be shown once. Inconclusive results and toxic doses are left out. Rule as the data show it: active = T/C of 150% or more; inactive = T/C below 125%.

Test system: L1210 leukemia ip in BDF1 mice, survival T/C
Experiment: NCI In Vivo Anticancer Drug Screen. Data for tumor model L1210 Leukemia (intraperitoneal) in B6D2F1 (BDF1) mice
Details: endpoint: mean survival time, higher = longer survival
Outline: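 In this screen, tumor-bearing mice given compound are compared to those given vehicle, and their survival values are reported as a treated-to-control quotient.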

[1] = dose: 100.0 mg/kg/injection, schedule: Q01DX009 (ip), vehicle: saline
[2] = dose: 100.0 mg/kg/injection, schedule: Q04DX003 (ip), vehicle: saline
[3] = dose: 200.0 mg/kg/injection, schedule: Q01DX009 (ip), vehicle: saline
[4] = dose: 200.0 mg/kg/injection, schedule: Q04DX003 (ip), vehicle: saline
[5] = dose: 400.0 mg/kg/injection, schedule: Q04DX003 (ip), vehicle: saline
[6] = dose: 25.0 mg/kg/injection, schedule: Q04DX003 (ip), vehicle: saline
[7] = dose: 50.0 mg/kg/injection, schedule: Q04DX003 (ip), vehicle: saline
[8] = dose: 100.0 mg/kg/injection, schedule: Q01DX001 (ip), vehicle: saline
[9] = dose: 200.0 mg/kg/injection, schedule: Q01DX001 (ip), vehicle: saline
[10] = dose: 400.0 mg/kg/injection, schedule: Q01DX001 (ip), vehicle: saline
[11] = dose: 100.0 mg/kg/injection, schedule: Q01DX001 (ip), vehicle: Klucel (hydroxypropylcellulose) (HPC)
[12] = dose: 100.0 mg/kg/injection, schedule: Q01DX009 (ip), vehicle: Klucel (hydroxypropylcellulose) (HPC)
[13] = dose: 100.0 mg/kg/injection, schedule: Q04DX003 (ip), vehicle: Klucel (hydroxypropylcellulose) (HPC)
[14] = dose: 200.0 mg/kg/injection, schedule: Q01DX001 (ip), vehicle: Klucel (hydroxypropylcellulose) (HPC)
[15] = dose: 200.0 mg/kg/injection, schedule: Q01DX009 (ip), vehicle: Klucel (hydroxypropylcellulose) (HPC)
[16] = dose: 200.0 mg/kg/injection, schedule: Q04DX003 (ip), vehicle: Klucel (hydroxypropylcellulose) (HPC)
[17] = dose: 400.0 mg/kg/injection, schedule: Q01DX001 (ip), vehicle: Klucel (hydroxypropylcellulose) (HPC)
[18] = dose: 400.0 mg/kg/injection, schedule: Q01DX009 (ip), vehicle: Klucel (hydroxypropylcellulose) (HPC)
[19] = dose: 400.0 mg/kg/injection, schedule: Q04DX003 (ip), vehicle: Klucel (hydroxypropylcellulose) (HPC)
[20] = dose: 100.0 mg/kg/injection, schedule: Q01DX009 (ip), vehicle: saline with Tween-80
[21] = dose: 100.0 mg/kg/injection, schedule: Q04DX003 (ip), vehicle: saline with Tween-80
[22] = dose: 50.0 mg/kg/injection, schedule: Q01DX001 (ip), vehicle: saline
[23] = dose: 50.0 mg/kg/injection, schedule: Q01DX001 (ip), vehicle: other
[24] = dose: 200.0 mg/kg/injection, schedule: Q01DX009 (ip), vehicle: saline with Tween-80
[25] = dose: 200.0 mg/kg/injection, schedule: Q04DX003 (ip), vehicle: saline with Tween-80
[26] = dose: 400.0 mg/kg/injection, schedule: Q01DX009 (ip), vehicle: saline with Tween-80
[27] = dose: 400.0 mg/kg/injection, schedule: Q04DX003 (ip), vehicle: saline with Tween-80
[28] = dose: 100.0 mg/kg/injection, schedule: Q04DX002 (ip), vehicle: Klucel (hydroxypropylcellulose) (HPC)
[29] = dose: 200.0 mg/kg/injection, schedule: Q04DX002 (ip), vehicle: Klucel (hydroxypropylcellulose) (HPC)
[30] = dose: 400.0 mg/kg/injection, schedule: Q04DX002 (ip), vehicle: Klucel (hydroxypropylcellulose) (HPC)

Measured: T/C

CCOC(=O)CNCc1ccc(F)cc1
inactive: [1] 105 % of control | [2] 104 % of control | [3] 103 % of control | [4] 110 % of control | dose: 400.0 mg/kg/injection, schedule: Q01DX009 (ip), vehicle: saline 88 % of control | [5] 100 % of control

C=CCc1cc(CNCCCOCC)c(O)c(OC)c1
inactive: dose: 12.5 mg/kg/injection, schedule: Q04DX003 (ip), vehicle: Klucel (hydroxypropylcellulose) (HPC) 97 % of control | dose: 25.0 mg/kg/injection, schedule: Q04DX003 (ip), vehicle: Klucel (hydroxypropylcellulose) (HPC) 95 % of control | dose: 50.0 mg/kg/injection, schedule: Q04DX003 (ip), vehicle: Klucel (hydroxypropylcellulose) (HPC) 92 % of control

CC(C)(N)Cc1ccc(Cl)cc1
inactive: [6] 111 % of control | [7] 106 % of control | [2] 104 % of control | [4] 92 % of control

ClC(Cl)(Cl)C1OCCCO1
inactive: [8] 97 % of control | [9] 107 % of control | [10] 103 % of control

CC(/C=N/O)=C1C=CC=C1
inactive: [11] 94 % of control | [12] 98 % of control | [13] 102 % of control | [14] 92 % of control | [15] 100 % of control | [16] 98 % of control | [17] 97 % of control | [18] 105 % of control | [19] 102 % of control

O=[N+]([O-])c1cccc(C(O)C=C(C(F)(F)F)C(F)(F)F)c1 (centres undefined)
inactive: dose: 25.0 mg/kg/injection, schedule: Q01DX009 (ip), vehicle: saline with Tween-80 100 % of control | dose: 50.0 mg/kg/injection, schedule: Q01DX009 (ip), vehicle: saline with Tween-80 98 % of control | [20] 98 % of control | [21] 103 % of control

O=C(CCN1CCCCC1)c1cccc([N+](=O)[O-])c1
inactive: dose: 12.0 mg/kg/injection, schedule: Q04DX003 (ip), vehicle: saline 93 % of control | dose: 25.0 mg/kg/injection, schedule: Q01DX009 (ip), vehicle: saline 111 % of control | [6] 101 % of control | dose: 50.0 mg/kg/injection, schedule: Q01DX009 (ip), vehicle: saline 103 % of control | [7] 95 % of control | [1] 103 % of control

O=[N+]([O-])c1ccc(Cl)cc1/C=N/NC(=S)Nc1cccc2cccnc12
inactive: [8] 100 % of control | [9] 103 % of control | [10] 100 % of control

O=C(CCCC(=O)N/N=C/C=C/c1ccccc1)N/N=C/C=C\c1ccccc1
inactive: [22] 87 % of control | [8] 110 % of control | [9] 93 % of control | [10] 97 % of control

COC(=O)/C=C(\C(=O)OC)N(C)c1ccccc1
inactive: [23] 106 % of control

CC(c1ccccc1)[P+](c1ccccc1)(c1ccccc1)c1ccccc1 (centres undefined)
inactive: dose: 12.5 mg/kg/injection, schedule: Q04DX002 (ip), vehicle: saline 106 % of control | dose: 25.0 mg/kg/injection, schedule: Q04DX002 (ip), vehicle: saline 111 % of control | dose: 50.0 mg/kg/injection, schedule: Q04DX002 (ip), vehicle: saline 97 % of control

O=C(O)c1c(Cl)[nH]c2ccccc12
inactive: dose: 50.0 mg/kg/injection, schedule: Q04DX002 (ip), vehicle: saline with Tween-80 101 % of control | dose: 100.0 mg/kg/injection, schedule: Q04DX002 (ip), vehicle: saline with Tween-80 97 % of control | dose: 200.0 mg/kg/injection, schedule: Q04DX002 (ip), vehicle: saline with Tween-80 89 % of control

CN(C)c1ccc(-c2cc(C(=O)O)c3cc(I)ccc3n2)c(Cl)c1
inactive: dose: 75.0 mg/kg/injection, schedule: Q01DX001 (ip), vehicle: saline 88 % of control | dose: 150.0 mg/kg/injection, schedule: Q01DX001 (ip), vehicle: saline 86 % of control | dose: 300.0 mg/kg/injection, schedule: Q01DX001 (ip), vehicle: saline 91 % of control

NCCc1ccc(F)cc1
inactive: [1] 109 % of control | [3] 97 % of control

O=C(Nc1ccccc1)Nc1ccc(F)cc1
inactive: [20] 100 % of control | [21] 101 % of control | [24] 94 % of control | [25] 99 % of control | [26] 96 % of control | [27] 105 % of control

c1ccc2[nH]c(C(=C(c3nc4ccccc4[nH]3)c3nc4ccccc4[nH]3)c3nc4ccccc4[nH]3)nc2c1
inactive: [11] 87 % of control | [13] 97 % of control | [14] 87 % of control | [16] 112 % of control | [19] 90 % of control

CCCCOC(=O)C(C)OC(=O)Nc1cccc(Cl)c1 (centres undefined)
inactive: [20] 93 % of control | [24] 95 % of control | [26] 90 % of control

CCOC(=O)Nc1cc(Cl)c([N+](=O)[O-])c(N)n1
inactive: [23] 106 % of control | dose: 100.0 mg/kg/injection, schedule: Q01DX001 (ip), vehicle: other 101 % of control | [21] 92 % of control | dose: 200.0 mg/kg/injection, schedule: Q01DX001 (ip), vehicle: other 109 % of control | [25] 116 % of control | dose: 400.0 mg/kg/injection, schedule: Q01DX001 (ip), vehicle: other 104 % of control | [27] 104 % of control

Cc1cccc(C)c1NS(=O)(=O)c1ccc(Cl)cc1
inactive: [12] 107 % of control | [13] 101 % of control | [15] 88 % of control | [16] 102 % of control | [18] 95 % of control | [19] 98 % of control

CCN(CC)C(=O)C1C2CC3OC(=O)C1C3C2 (centres undefined)
inactive: [2] 105 % of control and 108 % of control | [4] 94 % of control and 102 % of control | [5] 104 % of control

Cc1ccc2c(c1)C(c1ccccc1)=C(NC1CCCCC1)C2=O
inactive: [11] 87 % of control | [14] 91 % of control | [17] 92 % of control

COc1ccccc1CN1CCCN(Cc2ccccc2OC)C1c1ccccn1
inactive: [22] 100 % of control | [8] 100 % of control | [9] 100 % of control

O=C(COc1ccc(Br)cc1)Nc1ccc(Br)cc1
inactive: [28] 95 % of control | [29] 95 % of control | [30] 89 % of control

CCOC(=O)COc1cc([N+](=O)[O-])c(Cl)cc1Cl
inactive: [28] 98 % of control | [29] 98 % of control | [30] 98 % of control

Cc1ccnc(NC(=O)Nc2ccc(F)c([N+](=O)[O-])c2)c1
inactive: [12] 91 % of control | [15] 96 % of control | [18] 104 % of control
